The values below come from patent US8945584B2, “Cell culture system of a hepatitis C genotype 3a and 2a chimera” (Hvidovre Hospital, priority 2007, dated 2015).

Series [1] relates to Huh7.5 cells. As to the kind of experiment: Percentage of infected cells by immuno-staining for HCV NS5A. Type of series: cell-based, human. As for the experimental part: Analyses were carried out as previously described with modifications. Huh7.5 cells were washed with PBS, trypsinized and plated on chamber slides (Nunc). After ˜24 hours cells were washed twice with PBS and fixed 5 min with ice-cold methanol. After washing 2× with PBS and 1× with PBS/Tween (0.1% Tween-20), slides were blocked with PBS containing bovine serum albumin (BSA, 1%) and skim milk (0.2%) for 1 hour at room temperature. Endogenous peroxidase staining was reduced by adding 3% H202 in PBS for 5 min. After washing as above the 1st antibody (anti-NS5A, 9E10, a generous gift from Charles M. Rice, used at 1:200 in PBS/Tween) was added and incubated at 4° C. overnight. After washing slides were incubated with secondary antibody (ECLTM Anti-mouse IgG, horseradish peroxidase linked whole antibody, Amersham Biosciences, used at 1:300 in PBS/Tween) for 30 min at room temperature. After washing horseradish peroxidase substrate (DAB substrate kit, DAKO) was added. After incubation for 30 min, slides were washed with H2O, mounted with Fluoromount-G (Southern Biotech) and cover slipped. Percentage of infected cells was evaluated by light microscopy assigning values of 0% (no cells infected), 1%, 5%, 10-90% (in steps of 10%), 95% and 100% (all cells infected).

Series [2] concerns Huh7.5 cells. In words: Determination of 50% tissue culture infectious doses (TCID50) of culture supernatants. Type of series: cell-based, human. The following applies: for infectivity titer (TCID50): day 9 post-transfection, one of 6 replicate wells infected with undiluted supernatant. As for the experimental part:
To determine the efficiency of the developed system, HCV RNA titers are determined in IU/ml (international units/ml) with Taq-Man Real-Time-PCR and infectious titers are determined with a tissue culture infectious dose-50 method. This titer indicates the dilution of the examined viral stock, at which 50% of the replicate cell cultures used in the essay become infected and is given in TCID50/ml.
In general, the TCID50 of culture supernatants was determined as previously described. Huh7.5 cells were washed with PBS, trypsinized and plated at 6×10^3 cells per well of a poly-D-lysine coated 96 well plate (Nunc). After ˜24 hrs cells were incubated with 10-fold serial dilutions of viral stock cell culture supernatant in complete growth medium. For each dilution, six replicate wells were inoculated. After incubation for 48 hrs the plate was subjected to immuno staining for NS5A as described above. Wells were evaluated by light microscopy and scored positive if at least one positive cell could be detected. TCID50 values were calculated as described by Reed and Muench.
For determination of TCID50 Huh7.5 cells were plated at 6×10^3 cells/well on a poly-D-Lysine coated 96 well plate and infected with serial dilutions of virus containing cell culture supernatant in complete growth medium in replicates of 6 wells per dilution. After incubation for 48 hours cells were stained for NS5A expression. A well was counted positive, if at least one infected cell was visible. Calculation of TCID50 was done as previously described by Reed et al. † Average of 3 independent determinations, * average of 2 independent determinations, +1 determination. HCV RNA titers were determined with an TaqMan assay. Supernatants from transfection experiments were not tested in TaqMan due to DNA/RNA input from the transfection procedure. Specific infectivity was calculated as infectious units (TCID50/ml) per genome number (IU/ml).

The subject of series [3] is Huh7.5 cells. In words: Real-time PCR (TaqMan) assay for HCV RNA titers in cell culture supernatants. The format is cell-based, human. The following applies: kinetic experiment, inoculated with ~10^4 TCID50, day 6 and 9. As for the experimental part:
RNA was purified from 200 μl of heat inactivated (56° C. for 30 min) cell culture supernatant and eluted in a final volume of 50 μl using the Total Nucleic Acid Isolation Kit (Roche) in combination with the Total NA Variable Elution Volume protocol on a MagNA Pure LC Instrument (Roche). As an internal control, Phocine Distemper Virus (PDV) was added to the lysis buffer in a concentration titrated to yield a Ct of ˜32 upon real-time PCR analysis. In parallel to RNA purified from cell culture supernatants, a quantitative HCV standard panel covering RNA concentrations of 0 to 5×10^6 IU/ml in one log increments (OptiQuant HCV Panel, AcroMetrix) was analysed. […] For HCV, primers and a FAM-labelled MGB-probe were directed against the 5′ UTR and were previously shown to perform equivalently against a panel of the six major HCV genotypes in a different TaqMan assay (Engle R E, Bukh J, and Purcell R H, 2007) For PDV, a ready-to-use primer/probe mix was used (Dr. H. G. M. Niesters, Department of Virology, Erasmus Medical Centre, Rotterdam, The Netherlands). […] HCV RNA titers (IU/ml) were calculated using a standard curve created from the known concentrations of the standard panel and their corresponding Ct values (cycle number, at which the normalised fluorescence signal rises above a fixed threshold of 0.2 […] to the amount of template in the PCR reaction). […]
(In general: Real-time PCR tracks product formation cycle by cycle.)

The next series has as its system S52/JFH1(A4550C). As to the kind of experiment: Interferon alfa 2b treatment of infected Huh7.5 cultures, % NS5A positive cells. Type of series: cell-based, hepatitis C virus. The following applies: 5001 U/mL interferon alfa 2b in medium (FIG. 10 legend: 500 IU/mL). As for the experimental part: (§1) FIG. 10. S52/JFH1 viruses are sensitive to treatment with Interferon alfa. […] Huh7.5 cells were infected with 10^4 TCID50 (MOI 0,003) of the indicated viruses. On day 5 after infection, cultures were evaluated for % of NS5A positive cells (first datapoint) and 4×10^5 cells of the respective culture were plated per well of a 6-well dish. After 24 hrs incubation, treatment with cell culture medium containing 500 IU/mL interferon alfa 2b was started. Interferon containing medium was replaced at the time points indicated by arrows. Cultures were evaluated for the % of NS5A positive cells at the indicated timepoints.
(§2) As proof of principle of using the present invention in testing of anti-hepatitis C virus substances, the effects of interferon alfa, currently used in combination therapy for HCV, were tested on the infected cell culture. […] Thus we treated Huh7.5 cell cultures infected with J6/JFH1, S52/JFH1(T2718G; A4550C) and S52/JFH1(A4550C) with cell culture medium containing 5001 U/mL interferon alfa 2b (FIG. 10). After initiation of treatment, we observed for all cultures a fast decline of HCV antigen positive cells. Thus, for J6/JFH1 and S52/JFH1(T2718G; A4550C) the percentage of NS5A positive cells was 90 and 60 the day prior to treatment, whereas only 20% and 10% NS5A positive cells were detected in the respective cultures on day 3 of treatment ([…]).
(§3) HCV cell culture systems could be important tools for testing of antiviral therapeutics. […] Thus Huh7.5 cell cultures infected with J6/JFH1, S52/JFH1(T2718G; A4550C) and S52/JFH1(A4550C) were treated with cell culture medium containing 5001 U/mL interferon alfa 2b. After initiation of treatment, a fast decline of HCV antigen positive cells was shown for all cultures. Thus, for J6/JFH1 and S52/JFH1(T2718G; A4550C) the percentage of NS5A positive cells was 90 and 60 the day prior to treatment, whereas only 20% and 10% NS5A positive cells were detected in the respective cultures on day 3 of treatment (FIG. 10).

The next series relates to J6/JFH1. Described as above. The format is cell-based, hepatitis C virus. The protocol: as §1, §2, §3
The test system of another series is S52/JFH1(T2718G; A4550C). Described as above. Type of series: cell-based, hepatitis C virus. As for the experimental part: as §1, §2, §3
[4] abbreviates: 5001 U/mL interferon alfa 2b in medium (FIG. 10 legend: 500 IU/mL).
[5] abbreviates: day 6, cultures not treated for 48 hrs.

For the substance “S52/JFH1: intergenotypic 3a/2a recombinant HCV: Core-NS2 of strain S52, 5' UTR, NS3-NS5B and 3' UTR of JFH1”, the “% infected cells” value in the series with Huh7.5 cells [1] (First experiment, 2nd viral passage (used for kinetic experiment), day 11) is 95%; in the series with Huh7.5 cells [1] (First experiment, 3rd viral passage (inoculated with 10^2.5 TCID50), day 12), 95%; in the series with Huh7.5 cells [1] (First experiment, 3rd viral passage (inoculated with 10^4 TCID50), day 3) it was 90%; with Huh7.5 cells [1] (First experiment, transfection, experimental day 11), 40%; with Huh7.5 cells [1] (Second experiment, 1st viral passage, experimental day 8) it was 95%; in the series on Huh7.5 cells [1] (Second experiment, transfection, experimental day 33) it was 70%. Moreover, the “NS5A antigen positive cells” value in the series with Huh7.5 cells [1] (day 1 after transfection with RNA transcripts) is ~10%. The “time until viruses spread to the entire culture” value is 12 days with Huh7.5 cells [1] (naive Huh7.5 cells infected with approximately 10^2.5 TCID50), 9 days in the series with Huh7.5 cells [1] (naive Huh7.5 cells infected with approximately 10^3 TCID50) and 3 days in the series with Huh7.5 cells [1] (naive Huh7.5 cells infected with approximately 10^4 TCID50). The “infectivity titer (TCID50)” value in the series with Huh7.5 cells [2] was “undeterminable”; in the series on Huh7.5 cells [2] (listed as pS52/JFH1) it was “non-determinable”. Moreover, in the series on Huh7.5 cells [2] (days 3, 7 and 9 post-transfection (FIG. 5B)), the “Peak infectivity titers after transfection” value was “significantly lower titers”. In addition, the “peak HCV RNA titers” value in the series on Huh7.5 cells [3] is listed as ~10^7 copies/ml.

In the case of interferon alfa 2b, the “HCV antigen positive cells after initiation of treatment” value in the series with S52/JFH1(A4550C), in the series with J6/JFH1 (setting [4]) and in the series on S52/JFH1(T2718G; A4550C) (setting [4]) was “fast decline” throughout. In addition, the NS5A positive cells in the series with J6/JFH1 (day 3 of treatment, 90 the day prior to treatment) stood at 20%; in the series with J6/JFH1 (setting [5]), 40%; in the series with S52/JFH1(T2718G; A4550C) (day 3 of treatment, 60 the day prior to treatment), 10%; in the series on S52/JFH1(T2718G; A4550C) (setting [5]), 40%.
